Measured values reported in patent US4732970A, “Antitumor amino acid and peptide derivatives of 1,4-bis(aminoalkyl and hydroxy-aminoalkyl)amino)-5,8-dihydroxyanthraquinones” (priority 1986, dated 1988).

Tested on: lymphocytic leukemia P388
Assay: Lymphocytic Leukemia P388 Test
Type: in vivo, BDF1 mice
Conditions: for Median Survival: BDF1 mice; for T/C × 100 (%): ratio of survival time treated/control
Protocol: The animals used were BDF1 mice, all of one sex, weighing a minimum of 18 g and all within a 3 g weight range. There were 5 or 6 mice per test group. The tumor transplant was by intraperitoneal injection of 0.5 ml of dilute ascitic fluid containing 10^6 cells of lymphocytic leukemia P388. The test compounds were administered intraperitoneally on days 1, 5 and 9 (relative to tumor inocu-lation) at various doses. The animals were weighed and survivors recorded on a regular basis for 60 days. The median survival time and the ratio of survival time for treated (T)/control (C) animals were calculated.

[1] = dose 0.75 mg/kg intraperitoneally on days 1, 5 and 9
[2] = dose 1.5 mg/kg intraperitoneally on days 1, 5 and 9
[3] = dose 3 mg/kg intraperitoneally on days 1, 5 and 9

## CC(C)(C)OC(=O)N[C@@H](CO)C(=O)NCCNc1ccc(NCCNC(=O)[C@H](CO)NC(=O)OC(C)(C)C)c2c1C(=O)c1c(O)ccc(O)c1C2=O (relative stereo) [Example 14, [S-(R*,R*)]-N,N'-[(9,10-Dihydro-5,8-dihydroxy-9,10-dioxo-1,4-anthracenediyl)bis[imino-2,1-ethanediylimino-[1-(hydroxymethyl)-2-oxo-2,1-ethanediyl]]]bis-carbamic acid, bis(1,1-dimethylethyl)ester]
[1]
  Median Survival: 13.5 days
  T/C × 100 (%): 123%
[2]
  Median Survival: 16.0 days
  T/C × 100 (%): 145%
[3]
  Median Survival: 17.5 days
  T/C × 100 (%): 159%

## Cl.Cl.N[C@@H](Cc1ccccc1)C(=O)NCCNc1ccc(NCCNC(=O)[C@@H](N)Cc2ccccc2)c2c1C(=O)c1c(O)ccc(O)c1C2=O (relative stereo) [Example 17, [S-(R*,R*)]-N,N'-[(9,10-Dihydro-5,8-dihydroxy-9,10-dioxo-1,4-anthracenediyl)bis(imino-2,1-ethanediyl)]bis[2-aminobenzenepropanamide], dihydrochloride]
[1]
  Median Survival: 22.5 days
  T/C × 100 (%): 188%
[2]
  Median Survival: 23.0 days
  T/C × 100 (%): 192%
[3]
  Median Survival: 19.5 days
  T/C × 100 (%): 163%

## CC[C@H](C)[C@H](N)C(=O)NCCNc1ccc(NCCNC(=O)[C@@H](N)[C@@H](C)CC)c2c1C(=O)c1c(O)ccc(O)c1C2=O.Cl.Cl (relative stereo) [Example 21, [S-(R*,R*,R*,R*)]-N,N'-[(9,10-Dihydro-5,8-dihydroxy-9,10-dioxo-1,4-anthracenediyl)bis(imino-2,1-ethanediyl)]bis-[2-amino-3-methylpentanamide], dihydrochloride]
[1]
  Median Survival: 18.5 days
  T/C × 100 (%): 185%
[2]
  Median Survival: 18.0 days
  T/C × 100 (%): 180%
[3]
  Median Survival: 22.5 days
  T/C × 100 (%): 225%

## CSCC[C@H](N)C(=O)NCCNc1ccc(NCCNC(=O)[C@@H](N)CCSC)c2c1C(=O)c1c(O)ccc(O)c1C2=O.Cl.Cl (relative stereo) [Example 22, [S-(R*,R*)]N,N'(9,10-Dihydro-5,8-dihydroxy-9,10-dioxo-1,4-anthracenediyl)bis(imino-2,1-ethanediyl)]-bis[2-amino-4-(methylthio)butanamide], dihydrochloride]
[1]
  Median Survival: 17.0 days
  T/C × 100 (%): 170%
[2]
  Median Survival: 20.5 days
  T/C × 100 (%): 205%
[3]
  Median Survival: 25.5 days
  T/C × 100 (%): 255%

## CC(C)[C@H](N)C(=O)NCCNc1ccc(NCCNC(=O)[C@@H](N)C(C)C)c2c1C(=O)c1c(O)ccc(O)c1C2=O.Cl.Cl (relative stereo) [Example 24, [S-(R*,R*)]-N,N'-[(9,10-Dihydro-5,8-dihydroxy-9,10-dioxo-1,4-anthracenediyl)bis(imino-2,1-ethanediyl)]bis-[2-Amino-3-methylbutanamide], dihydrochloride]
[1]
  Median Survival: 18.5 days
  T/C × 100 (%): 185%
[2]
  Median Survival: 20.0 days
  T/C × 100 (%): 200%
[3]
  Median Survival: 20.0 days
  T/C × 100 (%): 200%

## CC(C)C[C@@H](N)C(=O)N(CCO)CCNc1ccc(NCCN(CCO)C(=O)[C@H](N)CC(C)C)c2c1C(=O)c1c(O)ccc(O)c1C2=O.O=C(O)C(F)(F)F.O=C(O)C(F)(F)F.O=C(O)C(F)(F)F (relative stereo) [Example 29, [R-(R*,R*)]-N,N'-[(9,10-Dihydro-5,8-dihydroxy-9,10-dioxo-1,4-anthracenediyl)bis(imino-2,1-ethanediyl)]bis-[2-amino-N-(2-hydroxyethyl)-4-methylpentanamide]tris(trifluoroacetate)]
[1]
  Median Survival: 12.0 days
  T/C × 100 (%): 109%
[2]
  Median Survival: 13.0 days
  T/C × 100 (%): 118%
[3]
  Median Survival: 15.5 days
  T/C × 100 (%): 141%

## Br.Br.N[C@@H](CS)C(=O)NCCNc1ccc(NCCNC(=O)[C@@H](N)CS)c2c1C(=O)c1c(O)ccc(O)c1C2=O (relative stereo) [Example 35, R-(R*,R*)]-N,N'-[(9,10-Dihydro-5,8-dihydroxy-9,10-dioxo-1,4-anthracenediyl)bis(imino-2,1-ethanediyl)]bis[2-amino-3-mercaptopropanamide], dihydrobromide]
[1]
  Median Survival: 21.0 days
  T/C × 100 (%): 210%
[2]
  Median Survival: 23.0 days
  T/C × 100 (%): 230%
[3]
  Median Survival: 24.5 days
  T/C × 100 (%): 245%

## N[C@@H](CO)C(=O)NCCNc1ccc(NCCNC(=O)[C@@H](N)CO)c2c1C(=O)c1c(O)ccc(O)c1C2=O.O=C(O)C(F)(F)F.O=C(O)C(F)(F)F (relative stereo) [Example 36, [S-(R*,R*)]-N,N'-(9,10-Dihydro-5,8-dihydroxy-9,10-dioxo-1,4-anthracenediyl)bis(imino-2,1-ethanediyl)]bis[2-amino-3-hydroxyropanamide]bis(trifluoroacetate)]
[1]
  Median Survival: 19.0 days
  T/C × 100 (%): 173%
[2]
  Median Survival: 19.0 days
  T/C × 100 (%): 173%
[3]
  Median Survival: 23.5 days
  T/C × 100 (%): 214%

## Cl.Cl.N[C@@H](Cc1ccc(O)cc1)C(=O)NCCNc1ccc(NCCNC(=O)[C@@H](N)Cc2ccc(O)cc2)c2c1C(=O)c1c(O)ccc(O)c1C2=O (relative stereo) [Example 37, [S-(R*,R*)]-N,N'-[(9,10-Dihydro-5,8-dihydroxy-9,10-dioxo-1,4anthracenediyl)bis(imino-2,1-ethanediyl)]bis-[2,-amino-3-(4-hydroxyphenyl)-propanamide, dihydrochloride]
[1]
  Median Survival: 25.0 days
  T/C × 100 (%): 227%
[2]
  Median Survival: 23.5 days
  T/C × 100 (%): 214%
[3]
  Median Survival: 23.5 days
  T/C × 100 (%): 214%

## CC(C)(C)OC(=O)C[C@H](NC(=O)OCC1c2ccccc2-c2ccccc21)C(=O)NCCNc1ccc(NCCNC(=O)[C@H](CC(=O)OC(C)(C)C)NC(=O)OCC2c3ccccc3-c3ccccc32)c2c1C(=O)c1c(O)ccc(O)c1C2=O (relative stereo) [Example 38, [S-R*,R*)]-4,4'-[(9,10-Dihydro-5,8-dihydroxy-D9,10-dioxo-1,4-anthracenediyl)bis(imino-2,1-ethanediylimino)]bis[3-[[9H-fluoren-9-ylmethoxycarbonyl]amino]-4-oxobut anoic acid],bis(1,1-dimethyl)ester]
[1]
  Median Survival: 13.0 days
  T/C × 100 (%): 108%
[2]
  Median Survival: 15.0 days
  T/C × 100 (%): 125%
[3]
  Median Survival: 16.0 days
  T/C × 100 (%): 133%

## CC(C)(C)OC(=O)C[C@H](N)C(=O)NCCNc1ccc(NCCNC(=O)[C@@H](N)CC(=O)OC(C)(C)C)c2c1C(=O)c1c(O)ccc(O)c1C2=O (relative stereo) [Example 39, [S-(R*,R*)]-4,4'-[(9,10-Dihydro-5,8-dihydroxy-9,10-dioxo-1,4-anthracenediyl)bis(imino-2,1-ethanediylimino)]bis[3-amino-4-oxobutanoic acid]bis(1,1-dimethylethyl)ester]
[1]
  Median Survival: 21.5 days
  T/C × 100 (%): 179%
[2]
  Median Survival: 19.5 days
  T/C × 100 (%): 163%
[3]
  Median Survival: 19.0 days
  T/C × 100 (%): 158%

## N[C@@H](CC(=O)O)C(=O)NCCNc1ccc(NCCNC(=O)[C@@H](N)CC(=O)O)c2c1C(=O)c1c(O)ccc(O)c1C2=O.O=C(O)C(F)(F)F.O=C(O)C(F)(F)F (relative stereo) [Example 40, S-(R*,R*)]-4,4'-[(9,10-Dihydro-5,8-dihydroxy-9,10-dioxo-1,4-anthracenediyl)bis(imino-2,1-ethanediylimino)]bis[3amino-4-oxobutanoic acid]bis(trifluoroacetate)]
[1]
  Median Survival: 23.0 days
  T/C × 100 (%): 192%
[2]
  Median Survival: 19.5 days
  T/C × 100 (%): 163%
[3]
  Median Survival: 23.0 days
  T/C × 100 (%): 192%

## CC(C)(C)OC(=O)N[C@@H](COCc1ccccc1)C(=O)NCCNc1ccc(NCCNC(=O)[C@H](COCc2ccccc2)NC(=O)OC(C)(C)C)c2c1C(=O)c1c(O)ccc(O)c1C2=O (relative stereo) [Example 41, S-(R*,R*)]-N,N'-[(9,10-Dihydro-5,8-dihydroxy-9,10-dioxo-1,4-anthracenediyl)bis[imino-2,1-ethanediylimino-[2-oxo-1-[(phenylmethoxy)methyl]-2,1-ethanediyl]]]biscarbamic acid, bis(1,1-dimethylethyl)ester]
[1]
  Median Survival: 12.0 days
  T/C × 100 (%): 120%
[2]
  Median Survival: 13.5 days
  T/C × 100 (%): 135%
[3]
  Median Survival: 15.5 days
  T/C × 100 (%): 155%

## N[C@@H](COCc1ccccc1)C(=O)NCCNc1ccc(NCCNC(=O)[C@@H](N)COCc2ccccc2)c2c1C(=O)c1c(O)ccc(O)c1C2=O.O=C(O)C(F)(F)F.O=C(O)C(F)(F)F (relative stereo) [Example 42, [S-(R*,R*)]-N,N'-[(9,10-Dihydro-5,8-dihydroxy-9,10-dioxo-1,4-anthracenediyl)bis[imino-2,1-ethanediyl)]bis[2-amino-3-(phenylmethoxy)-propanamide]bis(trifluoroacetate)]
[1]
  Median Survival: 19.5 days
  T/C × 100 (%): 195%
[2]
  Median Survival: 21.5 days
  T/C × 100 (%): 215%
[3]
  Median Survival: 19.5 days
  T/C × 100 (%): 195%
